This note sets out measurements from US9963462B2 (priority 2015, dated 2018).

Assay [1] concerns the target SNAP-hSPR (sepiapterin reductase, SPR) (Homo sapiens, UniProt P35270). The assay is described as follows: biochemical. Format: binding. The following applies: terbium labelled SNAP-hSPR / SSZ labelled SNAP-EGFP; read-out: hTR-FRET IC50.
The subject of assay [2] is BH4 levels in SK-N-BE (2) cells. The assay is described as follows: SKN-N-BE (2) cellular assay, BH4 levels by LC-MS. The format is cell-based.
The mark [3] stands for this setting: Homo sapiens, SKNBE2, read-out: SK-N-BE(2) IC50, SK-N-BE (2) cells, BH4 levels by LC-MS.
The mark [4] stands for this setting: read-out: SK-N-BE(2) IC50, SK-N-BE (2) cells, BH4 levels by LC-MS.

Where two headings read alike, the source gives them in different places.

Chain of SNAP-hSPR (sepiapterin reductase, SPR) (P35270 whole entry): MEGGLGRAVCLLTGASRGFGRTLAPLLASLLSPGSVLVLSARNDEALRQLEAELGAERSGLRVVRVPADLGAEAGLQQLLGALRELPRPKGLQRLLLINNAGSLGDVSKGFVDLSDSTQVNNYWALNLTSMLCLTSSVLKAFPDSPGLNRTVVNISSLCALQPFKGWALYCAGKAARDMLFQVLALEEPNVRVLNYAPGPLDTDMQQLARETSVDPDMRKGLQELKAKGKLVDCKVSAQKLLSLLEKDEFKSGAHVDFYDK

Broadly, the IC50 is the midpoint of a concentration-inhibition curve. `Cc1c(C(=O)N2CC2c2ccccc2)cnn1-c1nc2c(c(=O)[nH]1)CCC2` (stereo not shown) [Q-0596]: the IC50 amounted to 4 nM in assay [1] and 16 nM in assay [2] (setting [3]).

As for `Cc1c(C(=O)N2CCC(S(=O)(=O)c3ccc(F)c(F)c3)CC2)cnn1-c1nc2ccsc2c(=O)[nH]1` [Q-0597], the IC50 in assay [1] was 3 nM; in assay [2] (setting [3]) it was 53 nM.

In the case of `Cc1c(C(=O)N2CCC(C(O)(C(F)(F)F)C(F)(F)F)CC2)cnn1-c1nc2c(c(=O)[nH]1)CCC2` [Q-0598], the IC50 was determined as 4 nM in assay [1] and 10 nM in assay [2] (setting [4]).

For the molecule `Cc1c(C(=O)N2CCC(C#N)(c3ccccc3)CC2)cnn1-c1nn2cccc2c(=O)[nH]1` [Q-0599], the IC50 stood at 2 nM in assay [1] and 12 nM in assay [2] (setting [3]).

As for `Cc1c(C(=O)N2CCC(C(C)(C)C#N)CC2)cnn1-c1nn2cccc2c(=O)[nH]1` [Q-0600], the IC50 in assay [1] was determined as 1 nM; in assay [2] (setting [3]) it was 57 nM.

In the case of `Cc1c(C(=O)N2CCC3(CCCN3Cc3ccccc3)C2)cnn1-c1nc2ccsc2c(=O)[nH]1` (stereo not shown) [Q-0601], the IC50 stood at 5 nM in assay [1] and 100 nM in assay [2] (setting [3]).

With `Cc1c(C(=O)N2CC3COCC(C3)C2)cnn1-c1nc2ccsc2c(=O)[nH]1` [Q-0602], the IC50 in assay [1] turned out to be 20 nM; in assay [2] (setting [3]), 1200 nM.

On to `Cc1c(C(=O)N2CCC(c3nc4cc(F)ccc4s3)CC2)cnn1-c1nc2ccsc2c(=O)[nH]1` [Q-0603], for which the IC50 in assay [1] is 6 nM; in assay [2] (setting [3]) it was 100 nM.

For the molecule `Cc1c(C(=O)N2CCC(c3nc4cc(F)ccc4s3)CC2)cnn1-c1nn2cccc2c(=O)[nH]1` [Q-0604], the IC50 is 7 nM in assay [1] and 72 nM in assay [2] (setting [3]).

Turning to `Cc1c(C(=O)N2CCC(c3nc4ccccc4s3)CC2)ccnc1-c1nc2ccsc2c(=O)[nH]1` [Q-0605], the IC50 in assay [1] is 200 nM; in assay [2] (setting [3]) it was 10000 nM.

As for `Cc1c(C(=O)N2CCC(C(F)(F)F)CC2)cnn1-c1nn2c(F)ccc2c(=O)[nH]1` [Q-0606], the IC50 was 2 nM in assay [1] and 51 nM in assay [2] (setting [3]).

Consider `Cc1c(C(=O)N2CCC(c3nc4ccccc4s3)CC2)cnn1-c1nn2c(F)ccc2c(=O)[nH]1` [Q-0607], for which the IC50 in assay [1] came to 5 nM; in assay [2] (setting [3]) it was 87 nM.

Turning to `Cc1c(C(=O)N2CCC(c3nc4ccccc4s3)CC2)cnn1-c1nn2cccc2c(=O)[nH]1` [Q-0608], the IC50 in assay [1] stood at 2 nM; in assay [2] (setting [3]), 56 nM.

In the case of `O=C(c1ccc(-c2nc3c(c(=O)[nH]2)CCC3)s1)N1CCC(C(F)(F)F)CC1` [Q-0609, 2-(5-(4-(trifluoromethyl)piperidine-1-carbonyl)thiophen-2-yl)-6,7-dihydro-3H-cyclopenta[d]pyrimidin-4(5H)-one], the IC50 is 1 nM in assay [1] and 84 nM in assay [2] (setting [3]).

Turning to `Cc1c(C(=O)N2C[C@@H]3[C@H](C2)[C@@H]3C(N)=O)cnn1-c1nc2c(c(=O)[nH]1)CCC2` [Q-0610], the figures for the IC50 in assay [1] and in assay [2] (setting [3]) were 10 nM and 10000 nM, respectively.

Regarding `Cc1[nH]c2ccccc2c1C1CCN(C(=O)c2cnn(-c3nc4c(c(=O)[nH]3)CCC4)c2C)CC1` [Q-0611], the IC50 in assay [1] worked out at 4 nM; in assay [2] (setting [3]), 29 nM.

Regarding `COC(=O)C12CC(C(=O)N3CCN(C(=O)c4cnn(-c5nc6c(c(=O)[nH]5)CCC6)c4C)CC3)(C1)C2` [Q-0612], the IC50 in assay [1] came to 10 nM; in assay [2] (setting [3]), 2600 nM.

Turning to `Cc1c(C(=O)N2CC3CC3(O)C2)cnn1-c1nc2c(c(=O)[nH]1)CCC2` (stereo not shown) [Q-0614], the IC50 in assay [1] amounted to 10 nM; in assay [2] (setting [3]), 1600 nM.

On to `Cc1c(C(=O)N2CCC(c3cccc4[nH]ccc34)CC2)cnn1-c1nc2c(c(=O)[nH]1)CCC2` [Q-0615], for which the results for the IC50 in assay [1] and in assay [2] (setting [3]) were 3 nM and 19 nM, respectively.

Regarding `O=C(c1cnn(-c2nn3cc(F)cc3c(=O)[nH]2)c1)N1CCC(C(F)(F)F)CC1` [Q-0616, 6-fluoro-2-(4-(4-(trifluoromethyl)piperidine-1-carbonyl)-1H-pyrazol-1-yl)pyrrolo[1,2-f][1,2,4]triazin-4(3H)-one], the values for the IC50 in assay [1] and in assay [2] (setting [3]) were 2 nM and 100 nM, respectively.

Regarding `Cc1c(C(=O)N2CC3CC3(O)C2)cnn1-c1nc2sccc2c(=O)[nH]1` (stereo not shown) [Q-0617], the values for the IC50 in assay [1] and in assay [2] (setting [3]) were 20 nM and 3000 nM, respectively.

For `COC(=O)c1cnn(-c2nn3c(F)ccc3c(=O)[nH]2)c1C1CC1` [Q-0618], the values for the IC50 in assay [1] and in assay [2] (setting [3]) were 1 nM and 25 nM, respectively.

`COC(=O)c1cnn(-c2nn3c(F)ccc3c(=O)[nH]2)c1C` [Q-0619]: the IC50 is 3 nM in assay [1] and 300 nM in assay [2] (setting [3]).

With `O=C(c1cnn(-c2nn3c(F)ccc3c(=O)[nH]2)c1C1CC1)N1CCC(C(F)(F)F)CC1` [Q-0620], the IC50 was 1 nM in assay [1] and 100 nM in assay [2] (setting [3]).

For `Cc1c(C(=O)N2CC3CC3(O)C2)cnn1-c1nc2ccsc2c(=O)[nH]1` (stereo not shown) [Q-0621], the IC50 is 20 nM in assay [1] and 5200 nM in assay [2] (setting [3]).

Consider `Cc1c(C(=O)N2CCC(C(F)(F)F)CC2)ccn1-c1nc2c(c(=O)[nH]1)CCC2` [Q-0622, 2-(2-methyl-3-(4-(trifluoromethyl)piperidine-1-carbonyl)-1H-pyrrol-1-yl)-6,7-dihydro-3H-cyclopenta[d]pyrimidin-4(5H)-one], for which the half-maximal inhibitory concentration (IC50) in assay [1] was 1 nM; in assay [2] (setting [3]), 58 nM.

Regarding `CCC1(C#N)CCN(C(=O)c2cnn(-c3nn4c(F)ccc4c(=O)[nH]3)c2C)CC1` [Q-0623], the IC50 is 1 nM in assay [1] and 78 nM in assay [2] (setting [3]).

Consider `Cc1c(C(=O)N2CCC(c3c[nH]c4ccccc34)CC2)cnn1-c1nn2c(F)ccc2c(=O)[nH]1` [Q-0624], for which the IC50 in assay [1] was 2 nM; in assay [2] (setting [3]), 32 nM.

In the case of `CCC(C#N)(CC)C1CCN(C(=O)c2cnn(-c3nc4c(c(=O)[nH]3)CCC4)c2C)CC1` [Q-0626], the IC50 in assay [1] was 1 nM; in assay [2] (setting [3]), 14 nM.

Turning to `Cc1c(C(=O)N2CCN(C(=O)C34CC(C(=O)O)(C3)C4)CC2)cnn1-c1nc2c(c(=O)[nH]1)CCC2` [Q-0627, 3-(4-(5-methyl-1-(4-oxo-4,5,6,7-tetrahydro-3H-cyclopenta[d]pyrimidin-2-yl)-1H-pyrazole-4-carbonyl)piperazine-1-carbonyl)bicyclo[1.1.1]pentane-1-carboxylic acid], the IC50 in assay [1] was 9 nM; in assay [2] (setting [3]), 10000 nM.

As for `Cc1c(C(=O)N2CCN(C(=O)C34CC(C(N)=O)(C3)C4)CC2)cnn1-c1nc2c(c(=O)[nH]1)CCC2` [Q-0630], the IC50 in assay [1] stood at 9 nM; in assay [2] (setting [3]), 10000 nM.

As to `Cc1c(C(=O)N2CCN(C(=O)C34CC(C#N)(C3)C4)CC2)cnn1-c1nc2c(c(=O)[nH]1)CCC2` [Q-0632, 3-(4-(5-methyl-1-(4-oxo-4,5,6,7-tetrahydro-3H-cyclopenta[d]pyrimidin-2-yl)-1H-pyrazole-4-carbonyl)piperazine-1-carbonyl)bicyclo[1.1.1]pentane-1-carbonitrile], the IC50 is 4 nM in assay [1] and 7300 nM in assay [2] (setting [3]).

Take `Cc1c(C(=O)N2CCCCC2)cnn1-c1nc2c(c(=O)[nH]1)CCC2` [Q-0633]: the results for the IC50 in assay [1] and in assay [2] (setting [3]) were 5 nM and 400 nM, respectively.

Regarding `Cc1c(C(=O)N2CCCCC2)cnn1-c1nn2cccc2c(=O)[nH]1` [Q-0634], the half-maximal inhibitory concentration (IC50) in assay [1] amounted to 3 nM; in assay [2] (setting [3]), 700 nM.

Regarding `Cc1c(C(=O)N2CCC3(CC2)CC3)cnn1-c1nn2cccc2c(=O)[nH]1` [Q-0681], the figures for the IC50 in assay [1] and in assay [2] (setting [3]) were 1 nM and 200 nM, respectively.

In the case of `Cc1c(C(=O)N2CCC3(CC2)CC(F)(F)C3)cnn1-c1nc2c(c(=O)[nH]1)CCC2` [Q-0691], the IC50 is 2 nM in assay [1] and 91 nM in assay [2] (setting [3]).

With `Cc1c(C(=O)N2CCC3(CC2)CC3c2nnc(-c3ccccc3)o2)cnn1-c1nn2cccc2c(=O)[nH]1` (stereo not shown) [Q-0696], the IC50 amounted to 4 nM in assay [1] and 400 nM in assay [2] (setting [3]).

For `Cc1c(C(=O)N2CCC3(CC2)CC3c2nnc(-c3ccccc3)o2)cnn1-c1nc2c(c(=O)[nH]1)CCC2` (stereo not shown) [Q-0697], the IC50 in assay [1] turned out to be 4 nM; in assay [2] (setting [3]), 200 nM.

Turning to `Cc1c(C(=O)N2CCC(C3CC3)CC2)cnn1-c1nc2ccsc2c(=O)[nH]1` [Q-0698], the results for the IC50 in assay [1] and in assay [2] (setting [3]) were 1 nM and 71 nM, respectively.

For `Cc1c(C(=O)N2CCC(C3CC3)CC2)cnn1-c1nc2sccc2c(=O)[nH]1` [Q-0700], the IC50 was found to be 2 nM in assay [1] and 100 nM in assay [2] (setting [3]).

For `Cc1c(C(=O)N2CCC(C(O)(C(F)(F)F)C(F)(F)F)CC2)cnn1-c1nc2c(c(=O)[nH]1)CCC2` [Q-0701], the concentration for half-maximal inhibition (IC50) in assay [1] stood at 2 nM; in assay [2] (setting [4]), 82 nM.

Consider `O=C(c1cnn(-c2nc3c(c(=O)[nH]2)CCC3)c1)N1CCC(c2c[nH]c3ccccc23)CC1` [Q-0702], for which the IC50 amounted to 2 nM in assay [1] and 32 nM in assay [2] (setting [3]).

Turning to `Cc1c(C(=O)N2CCC(CC(F)(F)F)CC2)cnn1-c1nc2ccsc2c(=O)[nH]1` [Q-0704], the IC50 stood at 2 nM in assay [1] and 200 nM in assay [2] (setting [3]).

On to `O=C(c1cnn(-c2nc3c(c(=O)[nH]2)CCC3)c1)N1CCC2(CC1)CC2` [Q-0705], for which the IC50 in assay [1] was 2 nM; in assay [2] (setting [3]) it was 43 nM.

As for `O=C(c1cnn(-c2nc3c(c(=O)[nH]2)CCC3)c1)N1CCC(C2CC2)CC1` [Q-0706], the IC50 was found to be 2 nM in assay [1] and 30 nM in assay [2] (setting [3]).

As for `O=C(c1cnn(-c2nc3c(c(=O)[nH]2)CCC3)c1)N1CCC(c2nc3cc(F)ccc3s2)CC1` [Q-0707], the IC50 was determined as 5 nM in assay [1] and 300 nM in assay [2] (setting [3]).

Regarding `O=C(c1cnn(-c2nn3cccc3c(=O)[nH]2)c1)N1CCC2(CC1)CC2` [Q-0708], the IC50 was found to be 1 nM in assay [1] and 97 nM in assay [2] (setting [3]).

Regarding `O=C(c1cnn(-c2nn3cccc3c(=O)[nH]2)c1)N1CCC(C2CC2)CC1` [Q-0709], the IC50 was 1 nM in assay [1] and 28 nM in assay [2] (setting [3]).

For the molecule `CC(C)(C#N)C1CCN(C(=O)c2cnn(-c3nc4c(c(=O)[nH]3)CCC4)c2)CC1` [Q-0710], the IC50 in assay [1] turned out to be 2 nM; in assay [2] (setting [3]), 200 nM.

With `O=C(c1cnn(-c2nc3ccsc3c(=O)[nH]2)c1)N1CCC(C2CC2)CC1` [Q-0711], the IC50 in assay [1] amounted to 2 nM; in assay [2] (setting [3]), 86 nM.
